Results reported in patent US20230346956A1, “COMPLEX OF 7-DEACETYLFORSKOLIN AND PVP” (SciPharm S.à.r.l, priority 2020, published 2023).
Values after ≈ are worked out from the molar mass of the structure shown.

Tests used:
[1] = literature/background value; cited from earlier work
[2] = system: adenylyl cyclase (HEK293 cells stably expressing IP receptor); test: cAMP assay, HEK293 cells with IP receptor; type: cell-based, human; details: 30 μM forskolin in DMSO, 100 μM 7-DAFSK in water or as PVP K12 complex in water, with 30 μM treprostinil, treprostinil alone = control, 30 min, room temperature
Experimental: (§1) A cAMP assay was performed using HEK293 cells (human embryonic kidney cells, 1970) with the prostaglandin receptors EP2 or EP4, or the prostacyclin receptor IP. HEK293 cells were incubated with FCS and a radioligand ([^3H] adenine). The formation of cAMP ([^3H] cAMP) was monitored experimentally.
(§2) Day 1: HEK293 cells stably expressing either EP2, EP4, or IP receptors were grown on a 6-well plate in 2 mL DMEM medium containing 10% FCS and 2 μCi [^3H]-adenine and incubated for 16 hours.
(§3) Day 2: Cells were stimulated with 30 μM treprostinil alone or in combination with […] forskolin in DMSO, 100 μM 7-DAFSK in water, or 100 μM 7-DAFSK in 7-DAFSK-PVP K12 complex in water (in fresh medium for 30 minutes at room temperature). Cells were then lysed with 2.5% perchloric acid (PCA) for 30 minutes on ice. The PCA extract was neutralized with KOH and [^3H]cAMP was separated by sequential chromatography using DOWEX and alumina columns. Radioactivity was then measured using a scintillator.
(§4) An aliquot of PCA extract from each well was used to measure radioactivity.

[3] = Determination of water solubility (excess complex in water, filtration, HPLC); type: physicochemical; details: content of active in filtrate by HPLC
Experimental: For the solubility tests, the respective complex dried by means of rotary evaporator was used. A defined amount of water is added and then complex is added until an excess of 7-DAFSK-PVP is present. The supersaturated solution is sonicated, stirred and slightly heated (water bath 40° C.). The suspension is then filtered (0.45 μm filter) and the content of 7-DAFSK in the filtrate is determined by HPLC.

[4] = Amount going into solution in 6 mL H2O after the preparation procedure (0.45 μm filtration, HPLC); type: physicochemical; details: control sample without PVP12, heating method, 20 mg 7-DAFSK
Experimental: For the complexation of 7-deacetyl-forskolin with PVP K12 (“Kollidon” 12 PF, Ph. Eur., USP, JP; BASF, average molar mass: about 2.5 kD), 20 mg of 7-DAFSK and 20 mg of PVP K12 were triturated in a porcelain crucible and 300 μL of ethanol was added and stirred. After 10 min, 100 μL of H2O was added, stirred, and allowed to stand again for 10 min. The solution was then heated to 140° C. in a drying oven within 40 min and left in it for a total of 45 min. After cooling, 3 mL of H2O was added and stirring was performed for 20-30 min. Then, the suspension was taken up with a syringe and filtered through 0.45 μm filter (hydrophilic). The crucible was rewashed with 3 mL H2O and the wash solution was also filtered through the filter. The content of 7-DAFSK dissolved in the 6 mL H2O was determined by HPLC. For the determination, the 7-DAFSK-PVP complex solution was diluted 1:10 with running medium. A mass fraction of 7-DAFSK in the total complex of 35 wt % was determined.
To optimize the content of 7-DAFSK in the total complex, the weight ratios of 7-DAFSK and PVP K12 used were varied (FIG. 3). […]
20 mg FSK and 40 mg PVP 25 were triturated in a porcelain crucible and 300 μL ethanol (alternatively propanol) was added and stirred. […] The content of FSK dissolved in the 6 mL H2O was determined by HPLC. A mass fraction of FSK in the total complex of <0.01 wt % was determined.

[5] = system: adenylyl cyclase (HEK293 cells stably expressing EP2 receptor); test: cAMP assay, HEK293 cells with EP2 receptor; type: cell-based, human; details: 30 μM forskolin in DMSO, 100 μM 7-DAFSK in water or as PVP K12 complex in water, with 30 μM treprostinil, treprostinil alone = control, 30 min, room temperature
Experimental: as §1, §2, §3, §4

[6] = system: adenylyl cyclase (HEK293 cells stably expressing EP4 receptor); test: cAMP assay, HEK293 cells with EP4 receptor; type: cell-based, human; details: 30 μM forskolin in DMSO, 100 μM 7-DAFSK in water or as PVP K12 complex in water, with 30 μM treprostinil, treprostinil alone = control, 30 min, room temperature
Experimental: as §1, §2, §3, §4

Compound | solubility in water [1] | activation of adenylyl cyclase ([3H]cAMP formation) [2] | water solubility [3] | proportion of the 7-DAFSK used brought into solution [4] | activation of adenylyl cyclase ([3H]cAMP formation) [5] | activation of adenylyl cyclase ([3H]cAMP formation) [6] | solubility ([3]; 40 °C, thermodynamic from solid)
C=C[C@@]1(C)CC(=O)[C@]2(O)[C@@]3(C)[C@@H](O)CCC(C)(C)[C@@H]3[C@H](O)[C@H](O)[C@@]2(C)O1 [7-DAFSK, 7-deacetyl-forskolin] | up to 1 mg/mL | enhanced activity | 1000 µg/mL (≈ 2710 µM) | less than a quarter | enhanced activity | enhanced activity | –
CCCCC[C@H](O)CC[C@@H]1[C@H]2Cc3cccc(OCC(=O)O)c3C[C@H]2C[C@H]1O [Treprostinil, treprostinil] | – | no activation of AC | – | – | no activation of AC | no activation of AC | –
C=C[C@@]1(C)CC(=O)[C@]2(O)[C@@]3(C)[C@@H](O)CCC(C)(C)[C@@H]3[C@H](O)[C@H](OC(C)=O)[C@@]2(C)O1 [FSK, forskolin] | 10 µg/mL (≈ 24.4 µM) | – | – | – | – | – | 10 µg/mL (≈ 24.4 µM)
